Results reported in article PMC4069108 (PLoS ONE, 2014).

Experiments:
[1] = target: T1, recombinant human MT1 receptor purified from Pichia pastoris (MT1 purified) (Homo sapiens, UniProt P48039); experiment: [3H]-melatonin competition, PEG precipitation and filtration; format: binding; conditions: for MT1 purified / pKi ± SEM: purified in […] Fos14/[…] CHAPS; […] [3H]-melatonin, […] CHAPS/[…] CHS, pH […] MgCl2, […] °C, […] h
T1 construct: gene MTNR1A; alpha-factor signal, Flag and 10-His tags
Source text: [3H]-melatonin competition, PEG precipitation and filtration on recombinant human MT1 receptor purified from Pichia pastoris (MT1 purified)

[2] = target: T2, human melatonin MT1 receptor (MT1 CHO membranes) (Homo sapiens, UniProt P48039); experiment: [3H]-melatonin competition, filtration; format: binding; conditions: for MT1 CHO membranes / pKi ± SEM: CHO membranes; […] [3H]-melatonin, pH […] MgCl2, […] °C, […] h
T2 construct: gene MTNR1A; receptor cDNA in pcDNA3.1, no tag mentioned; crude membranes
Source text: [3H]-melatonin competition, filtration on human melatonin MT1 receptor (MT1 CHO membranes)

T2 sequence (P48039 whole entry): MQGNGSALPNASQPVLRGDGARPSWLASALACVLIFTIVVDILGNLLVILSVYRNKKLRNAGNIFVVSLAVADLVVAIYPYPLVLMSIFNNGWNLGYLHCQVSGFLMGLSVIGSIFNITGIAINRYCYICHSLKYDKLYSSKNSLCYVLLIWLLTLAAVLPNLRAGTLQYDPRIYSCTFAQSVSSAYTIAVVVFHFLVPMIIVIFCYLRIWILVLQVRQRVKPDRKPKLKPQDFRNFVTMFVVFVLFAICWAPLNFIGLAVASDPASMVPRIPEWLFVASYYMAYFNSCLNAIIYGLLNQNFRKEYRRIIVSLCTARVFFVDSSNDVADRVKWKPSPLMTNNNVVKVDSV
T1 sequence (P48039 whole entry): as above

| Ki ([1]; read-out: MT1 purified / pKi ± SEM (converted)) [µM] | Ki ([2]; read-out: MT1 CHO membranes / pKi ± SEM (converted)) [µM] | MT1 purified / pKi ± SEM [1] | MT1 CHO membranes / pKi ± SEM [2] | SMILES |
| --- | --- | --- | --- | --- |
| > 10 | > 10 | – | – | NCCc1c[nH]c2ccc(O)cc12 [5HT] |
| – | – | 7.25±0.06 pKi (-log M) | 7.76±0.15 pKi (-log M) | COc1ccc(CCN(C)CCCC(C#N)(c2cc(OC)c(OC)c(OC)c2)C(C)C)cc1OC (centres unmarked) [D600] |
| – | – | 7.02±0.14 pKi (-log M) | 7.71±0.14 pKi (-log M) | COc1ccc2ncn(CCNC(C)=O)c2c1 [S 21278] |
| – | – | 8.51±0.12 pKi (-log M) | 7.32±0.31 pKi (-log M) | COc1ccc2[nH]c(-c3cccc4ccccc34)c(CCNC(=O)CI)c2n1 [S 70254] |
